Measurements published in patent US20240300951A1, “Pyrazolopyridinone Compounds” (BeiGene Ltd., priority 2021, published 2024).

Tests used:
DGKζ = target: T1, DGKζ (Homo sapiens, UniProt Q13574); test: Biochemical DGK IC50 assay, DGKζ ADP-Glo assay; conditions: full length DGKζ 0.5 nM, ATP 140 μM, DAG 80 μM
T1 construct: His (N); TEV cleavage site (N); made in house; host or cells: Sf9 insect cells (baculovirus, Bac-to-Bac)
Protocol: (§1) Enzymatic reactions of DGKζ, DGKα and DGKδ were performed using ADP-Glo assay with lipid micelle substrate. […] Full length DGKα (D21-10BG, SignalChem) and full length DGKδ (D23-10G, SignalChem) were purchased. Lipid micelle was prepared by dissolving DAG (Sigma, 317505-10MG) and PS (Sigma, P7769-100MG) with chloroform which was furtherly removed by rotary evaporation. The resulted product was resuspended in buffer containing 25 mM HEPES pH 7.0, 0.5 mM EDTA and 160 mM Octyl β-D glucopyranoside by vigorous mixing and ultrasonic (IID, Scientz)
(§2) The ranges of compounds final concentration were 1.55-10000 nM or 23.3-150000 nM. 3 μL 2× enzyme solution was added to wells.
Human His-TEV-DGK-zeta-pFastBac1 and human baculovirus samples was generated using the Bac-to-Bac baculovirus expression system (Invitrogen) according to the manufacturer's protocol. The DNA used for expression of DGK-zeta, have SEQ ID Nos: 1. Baculovirus amplification was achieved using infected SF9 cells at 1:2000 virus/cells ratios, and grown for 96 hours at 27° C. post-transfected.
The expression scaled up for each protein was carried out in the […] from CORNING. 4 L of 3×10^6 cells/mL Sf9 cells (Expression System, Invitrogen) grown in SF900™ II SFM insect medium (Expression System) was infected with virus stock at 1:200 virus/cells ratio, and grown for 48 hours at 27° C. post-transfection. The infected cell culture was harvested by centrifugation at 6000 rpm for 15 min 4° C. in a SORVALL LYNX6000 centrifuge. The cell pellets were stored at −80° C.
Full length human DGK produced as described above, was purified from Sf9 baculovirus-infected insect cell paste. The cells were lysed using sonication method, and the lysates were clarified by centrifugation.

DGKα = target: T2, DGKα (Homo sapiens, UniProt P23743); test: Biochemical DGK IC50 assay, DGKα ADP-Glo assay; conditions: full length DGKα 7.5 nM, ATP 140 μM, DAG 80 μM
T2 construct: Full length DGKα (D21-10BG, SignalChem); purchased SignalChem D21-10BG
Protocol: as §1, §2

T1 sequence (Q13574 1-929 isoform Q13574-4): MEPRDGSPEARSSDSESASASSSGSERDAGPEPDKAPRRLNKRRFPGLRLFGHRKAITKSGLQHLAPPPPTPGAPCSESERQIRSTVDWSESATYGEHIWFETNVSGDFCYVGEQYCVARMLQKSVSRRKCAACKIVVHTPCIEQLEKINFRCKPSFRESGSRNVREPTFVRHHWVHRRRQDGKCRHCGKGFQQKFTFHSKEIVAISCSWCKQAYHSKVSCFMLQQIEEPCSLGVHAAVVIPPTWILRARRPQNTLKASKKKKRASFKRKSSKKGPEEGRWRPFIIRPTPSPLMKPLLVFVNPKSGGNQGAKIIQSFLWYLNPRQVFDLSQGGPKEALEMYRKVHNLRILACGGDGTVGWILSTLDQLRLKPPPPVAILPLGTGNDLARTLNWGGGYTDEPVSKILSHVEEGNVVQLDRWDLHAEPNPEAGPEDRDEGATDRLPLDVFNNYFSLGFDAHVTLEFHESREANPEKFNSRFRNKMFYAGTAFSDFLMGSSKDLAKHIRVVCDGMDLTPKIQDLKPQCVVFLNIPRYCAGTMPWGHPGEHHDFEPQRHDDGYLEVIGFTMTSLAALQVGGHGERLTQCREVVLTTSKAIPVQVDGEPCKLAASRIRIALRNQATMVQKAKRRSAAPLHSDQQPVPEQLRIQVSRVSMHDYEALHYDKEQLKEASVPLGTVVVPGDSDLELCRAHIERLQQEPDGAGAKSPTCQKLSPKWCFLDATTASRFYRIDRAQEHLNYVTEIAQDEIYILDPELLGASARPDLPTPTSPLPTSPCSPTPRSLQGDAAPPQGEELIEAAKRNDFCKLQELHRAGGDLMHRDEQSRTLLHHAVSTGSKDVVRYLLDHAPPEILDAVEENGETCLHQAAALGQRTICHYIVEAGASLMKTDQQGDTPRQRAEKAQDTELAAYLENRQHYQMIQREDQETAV
T2 sequence (P23743 whole entry): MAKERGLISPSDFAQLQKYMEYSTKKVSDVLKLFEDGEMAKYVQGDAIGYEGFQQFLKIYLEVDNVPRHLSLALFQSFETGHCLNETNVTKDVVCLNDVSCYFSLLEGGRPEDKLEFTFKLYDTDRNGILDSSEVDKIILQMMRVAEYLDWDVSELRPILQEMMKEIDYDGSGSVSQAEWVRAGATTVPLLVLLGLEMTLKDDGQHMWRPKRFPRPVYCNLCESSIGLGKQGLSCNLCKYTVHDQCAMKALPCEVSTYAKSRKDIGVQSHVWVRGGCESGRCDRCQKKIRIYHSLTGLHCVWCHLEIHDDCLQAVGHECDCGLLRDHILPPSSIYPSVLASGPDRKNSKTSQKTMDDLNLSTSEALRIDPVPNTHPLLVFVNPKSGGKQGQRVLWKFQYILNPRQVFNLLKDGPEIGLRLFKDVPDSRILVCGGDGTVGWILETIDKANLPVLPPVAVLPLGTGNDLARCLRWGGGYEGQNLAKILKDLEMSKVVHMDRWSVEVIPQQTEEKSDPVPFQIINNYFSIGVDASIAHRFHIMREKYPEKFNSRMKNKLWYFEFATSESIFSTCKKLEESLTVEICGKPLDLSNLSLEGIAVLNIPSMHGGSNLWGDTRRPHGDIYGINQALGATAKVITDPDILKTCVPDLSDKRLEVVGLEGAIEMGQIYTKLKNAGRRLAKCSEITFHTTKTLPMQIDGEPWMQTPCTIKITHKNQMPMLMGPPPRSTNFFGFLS

Molecule	IC50 (DGKζ) [µM]	IC50 (DGKα) [µM]
7-((2S,5R)-4-(1-(1-(2,2-difluoroethyl)-1H-pyrazol-5-yl)ethyl)-2,5-diethylpiperazin-1-yl)-4-methyl-2,4-dihydro-5H-pyrazolo[4,3-b]pyridin-5-one [Compound A228]	9.2	> 10
Cc1nc2ccc(C(C)N3C[C@H](C)N(c4cc(=O)n(C)c5cn(CC#N)nc45)C[C@H]3C)cn2n1 (mixture of isomers) [Compound A321]	4.02	–
COCc1cc(F)ccc1C(C)N1C[C@H](C)N(c2cc(=O)n(C)c3cn(CC#N)nc23)C[C@H]1C (single isomer, unassigned) [Compound A29a]	2.22	> 10
CC(c1ccc2c(c1)OCC(C)(C)O2)N1C[C@H](C)N(c2cc(=O)n(C)c3cn(CC#N)nc23)C[C@H]1C (single isomer, unassigned) [Compound A46c]	0.135	3.34
CC(c1ccc2c(c1)OC(C)(C)CO2)N1C[C@H](C)N(c2cc(=O)n(C)c3cn(CC#N)nc23)C[C@H]1C (single isomer, unassigned) [Compound A46d]	0.009	11.4
CC(c1ccc2c(c1)OCC(C)(C)O2)N1C[C@H](C)N(c2cc(=O)n(C)c3cn(CC#N)nc23)C[C@H]1C (single isomer, unassigned) [Compound A46e]	6.16	26
CC[C@H]1CN(C(C)c2ccc(C3CC3)cc2F)[C@H](CC)CN1c1cc(=O)n(C)c2cn(CC#N)nc12 (single isomer, unassigned) [Compound A72a]	0.85	1.2
CC[C@H]1CN(C(C)c2ccc(C3CC3)cc2F)[C@H](CC)CN1c1cc(=O)n(C)c2cn(CC#N)nc12 (single isomer, unassigned) [Compound A72b]	0.015	0.083
CC[C@H]1CN(C(C)c2ncccc2OC)[C@H](CC)CN1c1cc(=O)n(C)c2cn(CC#N)nc12 (single isomer, unassigned) [Compound A92a]	> 10	> 10
CC[C@H]1CN(C(C)c2ncccc2OC)[C@H](CC)CN1c1cc(=O)n(C)c2cn(CC#N)nc12 (single isomer, unassigned) [Compound A92b]	2.84	–
CC[C@H]1CN(C(C)c2cccc(C)c2C(F)(F)F)[C@H](CC)CN1c1cc(=O)n(C)c2cn(CC#N)nc12 (single isomer, unassigned) [Compound A110a]	0.151	1.16
CC[C@H]1CN(C(C)c2cccc(C)c2C(F)(F)F)[C@H](CC)CN1c1cc(=O)n(C)c2cn(CC#N)nc12 (single isomer, unassigned) [Compound A110b]	1.23	9.03
CC[C@H]1CN(C2CCCc3ccccc32)[C@H](CC)CN1c1cc(=O)n(C)c2cn(CC#N)nc12 (single isomer, unassigned) [Compound A146a]	0.283	0.44
CC[C@H]1CN(C2CCCc3ccccc32)[C@H](CC)CN1c1cc(=O)n(C)c2cn(CC#N)nc12 (single isomer, unassigned) [Compound A146b]	4.69	> 10
CC[C@H]1CN(C2CCOc3ccccc32)[C@H](CC)CN1c1cc(=O)n(C)c2cn(CC#N)nc12 (single isomer, unassigned) [Compound A150a]	2.75	5.83
CC[C@H]1CN(C2CCOc3ccccc32)[C@H](CC)CN1c1cc(=O)n(C)c2cn(CC#N)nc12 (single isomer, unassigned) [Compound A150b]	0.543	0.0825
CC[C@@H]1CN(c2c(Cl)c(=O)n(C)c3cn(CC#N)nc23)CCN1C(C)c1ccc2nccnc2c1 (single isomer, unassigned) [Compound A162a]	4.48	> 10

Molecule	IC50 (DGKζ) [µM]	IC50 (DGKα) [µM]
CC[C@H]1CN(C(C)c2ccc(F)cc2C(F)F)[C@H](CC)CN1c1cc(=O)n(C)c2cn(CC#N)nc12 (single isomer, unassigned) [Compound A172a]	4.32	> 10
CC[C@@H]1CN(c2cc(=O)[nH]c3cn(CC#N)nc23)[C@@H](C)CN1C(C)c1ccc2nccnc2c1 (single isomer, unassigned) [Compound A177b]	3.6	> 10
CC[C@H]1CN(C(C)c2ccc3nccnc3c2)[C@H](CC)CN1c1cc(=O)n(C(C)C)c2cn(CC#N)nc12 (single isomer, unassigned) [Compound A190a]	0.172	> 10
CC[C@H]1CN(C(C)c2ccc3nccnc3c2)[C@H](CC)CN1c1cc(=O)n(C(C)C)c2cn(CC#N)nc12 (single isomer, unassigned) [Compound A190b]	> 10	–
CC[C@H]1CN(C(C)c2nc(Cl)cn2CC)[C@H](CC)CN1c1cc(=O)n(C)c2cn(CC#N)nc12 (single isomer, unassigned) [Compound A191a]	6.78	> 10
CC[C@H]1CN(C(C)c2nc(Cl)cn2CC)[C@H](CC)CN1c1cc(=O)n(C)c2cn(CC#N)nc12 (single isomer, unassigned) [Compound A191b]	1.18	–
CC[C@@H]1CN(c2c(F)c(=O)[nH]c3cn(CC#N)nc23)[C@@H](C)CN1C(C)c1ccc2nccnc2c1 (single isomer, unassigned) [Compound A194b]	1.19	5.09
CC[C@@H]1CN(c2cc(=O)n(C)c3cn(CC#N)nc23)[C@@H](C)CN1C(C)c1ccc(F)cc1C(F)(F)F (single isomer, unassigned) [Compound A218a]	0.166	> 150
CC#CCn1cc2c(n1)c(N1C[C@@H](CC)N(C(C)c3ccc(F)cc3C(F)(F)F)C[C@@H]1CC)cc(=O)n2C (single isomer, unassigned) [Compound A238a]	2.39	> 10
Cc1c2c(nn1CC#N)c(N1C[C@@H](C)N(C(C)c3ccc(F)cc3C(F)(F)F)C[C@@H]1C)nc(=O)n2C (single isomer, unassigned) [Compound A267b]	0.07	> 150
Cc1cnc2ccc([C@H](C)N3C[C@H](C)N(c4cc(=O)n(C)c5cn(CC#N)nc45)C[C@H]3C)cc2n1 (single isomer, unassigned) [Compound A269d]	0.021	51.7
CC[C@H]1CN(C(C)c2ccc3nc(OC)cnc3c2)[C@H](CC)CN1c1cc(=O)n(C)c2cn(CC#N)nc12 (single isomer, unassigned) [Compound A281b]	1.12	11.2
CC[C@H]1CN(C(C)c2ccc(C(F)F)nc2)[C@H](CC)CN1c1cc(=O)n(C)c2cn(CC#N)nc12 (single isomer, unassigned) [Compound A351b]	3.25	1.19
CC[C@H]1CN(C(C)c2ccc(CN3CCOCC3)cc2)[C@H](CC)CN1c1cc(=O)n(C)c2cn(CC#N)nc12 (single isomer, unassigned) [Compound A383b]	4.59	2.79
CCC1CN(c2c(C#N)c(=O)n(C)c3cn(CC#N)nc23)CCN1C(C)c1ccc2nccnc2c1 [Compound A169, 2-(cyanomethyl)-7-((2S,5R)-3-ethyl-4-(1-(quinoxalin-6-yl)ethyl)piperazin-1-yl)-4-methyl-5-oxo-4,5-dihydro-2H-pyrazolo[4,3-b]pyridine-6-carbonitrile]	0.701	> 10
COc1cc(F)ccc1C(C)N1C[C@H](C)N(c2cc(=O)n(C)c3cn(CC#N)nc23)C[C@H]1C (stereo partly drawn) [Compound A248, 2-(7-((2S,5R)-4-(1-(2-omethoxy-4-fluorophenyl)ethyl)-2,5-dimethylpiperazin-1-yl)-4-methyl-5-oxo-4,5-dihydro-2H-pyrazolo[4,3-b]pyridin-2-yl)acetonitrile]	0.579	–
